This note sets out measurements from ChEMBL document CHEMBL5154929, “Optimization of the Natural Product Calothrixin A to Discover Novel Dual Topoisomerase I and II Inhibitors with Improved Anticancer Activity” (J Med Chem, 2022).

For one data set, the system named is HCT-116. In words: Cytotoxicity against human HCT-116 cells expressing high level of topoisomerase I/II measured after 72 hrs by MTT assay. In kind it is functional, cell-based. The conditions noted are these: HCT-116, 72 h.
Another data set concerns MDA-MB-231. Put plainly: Cytotoxicity against human MDA-MB-231 cells expressing high level of topoisomerase I/II measured after 72 hrs by MTT assay. Type of data set: functional, cell-based. To be noted: MDA-MB-231, 72 h.
For the next data set, the system named is A-375. In words: Cytotoxicity against human A-375 cells expressing high level of topoisomerase I/II measured after 72 hrs by MTT assay. Type of data set: functional, cell-based. The conditions noted are these: A-375, 72 h.
Data set [1] can be described thus: Cytotoxicity against human HEK293T cells measured after 72 hrs by MTT assay. Type of data set: toxicity, cell-based, HEK-293T.
Another data set has as its system A549. In words: Cytotoxicity against human A549 cells expressing high level of topoisomerase I/II measured after 72 hrs by MTT assay. To be noted: A549, 72 h. In kind it is functional, cell-based.
Data set [2] has as its target T1, DNA topoisomerase 1 (Homo sapiens) (UniProt P11387).
T1 sequence (whole entry): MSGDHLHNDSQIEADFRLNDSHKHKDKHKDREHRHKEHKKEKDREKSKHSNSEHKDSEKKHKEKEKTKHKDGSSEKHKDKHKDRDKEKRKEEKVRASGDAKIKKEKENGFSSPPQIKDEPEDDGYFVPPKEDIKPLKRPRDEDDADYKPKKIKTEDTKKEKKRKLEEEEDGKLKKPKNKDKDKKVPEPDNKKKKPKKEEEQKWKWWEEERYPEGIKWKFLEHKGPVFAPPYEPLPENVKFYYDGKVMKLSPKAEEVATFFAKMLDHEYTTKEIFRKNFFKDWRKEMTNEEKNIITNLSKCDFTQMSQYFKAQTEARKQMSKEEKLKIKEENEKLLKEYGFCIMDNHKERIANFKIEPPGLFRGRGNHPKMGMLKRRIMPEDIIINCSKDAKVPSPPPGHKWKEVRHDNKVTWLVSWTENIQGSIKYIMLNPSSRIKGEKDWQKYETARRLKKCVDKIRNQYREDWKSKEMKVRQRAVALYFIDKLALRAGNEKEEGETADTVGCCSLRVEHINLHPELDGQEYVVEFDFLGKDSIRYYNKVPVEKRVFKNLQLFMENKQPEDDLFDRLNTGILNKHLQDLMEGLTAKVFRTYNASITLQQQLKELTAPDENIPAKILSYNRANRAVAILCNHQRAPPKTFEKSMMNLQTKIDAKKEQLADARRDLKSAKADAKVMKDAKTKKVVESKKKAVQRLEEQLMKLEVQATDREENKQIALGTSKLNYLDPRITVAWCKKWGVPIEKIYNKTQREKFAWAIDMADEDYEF
Put plainly: Inhibition of DNA topoisomerase I (unknown origin) relaxation activity at 100 uM incubated for 30 mins by chemiDoc system.

The test system of a further data set is SH-SY5Y. In words: Cytotoxicity against human SH-SY5Y cells expressing low level of topoisomerase I/II measured after 72 hrs by MTT assay. In kind it is functional, cell-based.
For the next data set, the system named is MCF7. Put plainly: Cytotoxicity against human MCF7 cells expressing high level of topoisomerase I/II measured after 72 hrs by MTT assay. In kind it is functional, cell-based. The conditions noted are these: MCF7, 72 h.
Data set [3] in a line: Cytotoxicity against human L02 cells measured after 72 hrs by MTT assay. Type of data set: toxicity, cell-based.

The structures appear in SMILES notation. Calls of active or inactive are those of the source. No cut-off for these calls is given here.

As to `CN(C)CCCCn1c2c(c3ccccc31)C(=O)c1c[n+]([O-])c3ccccc3c1C2=O`, the IC50 was 450 nM with HCT-116; 350 nM in the data set on MDA-MB-231; 470 nM in the data set with A-375; 310 nM in the data set with A549; 250 nM in the data set on SH-SY5Y; 220 nM in the data set with MCF7. Besides, the IC50 at 72 h in data set [1] is 520 nM; in [3], 300 nM. Besides, in data set [2], the inhibition entry is “Active”.

Turning to `O=C1c2c[n+]([O-])c3ccccc3c2C(=O)c2c1c1ccccc1n2Cc1cn(C[C@H](O)CO)nn1`, the IC50 is 400 nM in the data set on HCT-116; 1310 nM in the data set on MDA-MB-231; 350 nM in the data set with A-375; 1030 nM in the data set with A549; greater than 1000 nM with SH-SY5Y; greater than 1000 nM in the data set with MCF7. Moreover, the IC50 at 72 h was 8880 nM in data set [1] and 1130 nM in data set [3].

Consider `CC1(C)OCC(Cn2cc(Cn3c4c(c5ccccc53)C(=O)c3c[n+]([O-])c5ccccc5c3C4=O)nn2)O1` (centres undefined), for which the IC50 with HCT-116 worked out at 70 nM; in the data set with MDA-MB-231, 230 nM; in the data set on A-375 it was 330 nM; in the data set on A549 it was 80 nM; in the data set with SH-SY5Y, 230 nM; with MCF7, 290 nM. For the same molecule, the IC50 at 72 h was 5510 nM in [1] and 120 nM in data set [3].

For `CC1(C)O[C@@H](CO)[C@H](Cn2cc(Cn3c4c(c5ccccc53)C(=O)c3c[n+]([O-])c5ccccc5c3C4=O)nn2)O1`, the IC50 in the data set with HCT-116 is 130 nM; in the data set with MDA-MB-231 it was 680 nM; in the data set with A-375, 190 nM; in the data set with A549, 370 nM; in the data set with SH-SY5Y, greater than 1000 nM; with MCF7 it was 690 nM. The IC50 at 72 h in data set [1] is 120 nM; in [3], 500 nM.

Consider `O=C1c2c[n+]([O-])c3ccccc3c2C(=O)c2c1c1ccccc1n2CCCCN1CCNCC1`, for which the IC50 with HCT-116 stood at 700 nM; in the data set on MDA-MB-231 it was 3310 nM; in the data set with A-375, 460 nM; with A549, 540 nM; with SH-SY5Y, 1240 nM; in the data set on MCF7, 12000 nM. In addition, the values for the IC50 at 72 h in [1] and in data set [3] were 760 nM and 1380 nM, respectively. Besides, in [2], the inhibition entry is “Active”.

For `O=C1c2c[n+]([O-])c3ccccc3c2C(=O)c2c1c1ccccc1n2Cc1cn(C[C@@H](O)CO)nn1`, the IC50 is 190 nM in the data set on HCT-116; 670 nM in the data set with MDA-MB-231; 140 nM in the data set on A-375; 390 nM with A549; greater than 500 nM in the data set on SH-SY5Y; 600 nM in the data set with MCF7. Besides, the IC50 at 72 h in data set [1] was found to be 2030 nM; in data set [3] it was 490 nM.

With `CC(=O)OC[C@@H]1OC(C)(C)O[C@H]1Cn1cc(Cn2c3c(c4ccccc42)C(=O)c2c[n+]([O-])c4ccccc4c2C3=O)nn1`, the IC50 was 580 nM with HCT-116; greater than 1000 nM in the data set with MDA-MB-231; 430 nM in the data set on A-375; greater than 1000 nM in the data set with A549; greater than 1000 nM in the data set on SH-SY5Y; greater than 1000 nM in the data set on MCF7. In addition, the IC50 at 72 h is 10200 nM in [1] and 1060 nM in [3].

Regarding `O=C1c2c[n+]([O-])c3ccccc3c2C(=O)c2c1c1ccccc1n2CCCCCN1CCOCC1`, the IC50 with HCT-116 turned out to be 300 nM; in the data set on MDA-MB-231 it was 330 nM; with A-375, 230 nM; in the data set on A549 it was 130 nM; in the data set on SH-SY5Y it was 300 nM; with MCF7, 260 nM. Moreover, the IC50 at 72 h in data set [1] came out at 150 nM; in [3], 330 nM.

Consider `CN1CCN(CCCn2c3c(c4ccccc42)C(=O)c2c[n+]([O-])c4ccccc4c2C3=O)CC1`, for which the IC50 in the data set on HCT-116 worked out at 560 nM; in the data set on MDA-MB-231 it was 390 nM; with A-375 it was 470 nM; with A549, 140 nM; in the data set with SH-SY5Y, 560 nM; in the data set with MCF7 it was 220 nM. The IC50 at 72 h in [1] amounted to 170 nM; in data set [3], 230 nM.

For the molecule `CC[C@@]1(O)C(=O)OCc2c1cc1n(c2=O)Cc2cc3ccccc3nc2-1` [CAMPTOTHECIN], the IC50 was 600 nM in the data set with HCT-116; 490 nM with MDA-MB-231; 660 nM with A-375; 370 nM in the data set with A549; 610 nM in the data set with SH-SY5Y; 350 nM in the data set on MCF7. Further, the IC50 at 72 h in [1] amounted to 690 nM; in data set [3] it was 140 nM.

Consider `O=C1c2c[n+]([O-])c3ccccc3c2C(=O)c2c1c1ccccc1n2CCCN1CCC(O)CC1`, for which the IC50 in the data set with HCT-116 turned out to be 190 nM; in the data set with MDA-MB-231, 280 nM; in the data set with A-375, 240 nM; in the data set on A549, 350 nM; with SH-SY5Y, 130 nM; in the data set on MCF7 it was 190 nM. Moreover, the IC50 at 72 h in data set [1] worked out at 170 nM; in data set [3], 120 nM.

Turning to `O=C1c2c[n+]([O-])c3ccccc3c2C(=O)c2c1c1ccccc1n2Cc1cn([C@H]2O[C@H](CO)[C@@H](O)[C@H]2O)nn1`, the IC50 with HCT-116 was 710 nM; in the data set with MDA-MB-231 it was 1700 nM; in the data set with A-375 it was 340 nM; in the data set with A549, 2680 nM; in the data set with SH-SY5Y, 1340 nM; with MCF7 it was 1490 nM. The IC50 at 72 h in data set [1] came out at 1370 nM; in data set [3], 950 nM.

As for `O=C1c2c[n+]([O-])c3ccccc3c2C(=O)c2c1c1ccccc1n2CCCCn1ccnc1`, the IC50 in the data set on HCT-116 turned out to be 240 nM; in the data set with MDA-MB-231 it was 210 nM; in the data set on A-375, 350 nM; in the data set on A549, 170 nM; with SH-SY5Y, 130 nM; with MCF7, 130 nM. Further, the IC50 at 72 h in data set [1] came out at 280 nM; in data set [3], 150 nM.

As for `CC(=O)OC[C@H]1O[C@@H](n2cc(Cn3c4c(c5ccccc53)C(=O)c3c[n+]([O-])c5ccccc5c3C4=O)nn2)[C@H](OC(C)=O)[C@@H]1OC(C)=O`, the IC50 in the data set on HCT-116 came out at 650 nM; in the data set with MDA-MB-231, 600 nM; in the data set on A-375 it was 150 nM; in the data set with A549, 1160 nM; in the data set with SH-SY5Y, 1900 nM; with MCF7 it was 460 nM. Moreover, the IC50 at 72 h in [1] is 900 nM; in data set [3], 270 nM.

For the molecule `CN1CCN(CCCCCn2c3c(c4ccccc42)C(=O)c2c[n+]([O-])c4ccccc4c2C3=O)CC1`, the IC50 in the data set with HCT-116 was determined as 1220 nM; in the data set with MDA-MB-231, 2270 nM; with A-375 it was 1710 nM; with A549 it was 870 nM; with SH-SY5Y it was 830 nM; with MCF7 it was 1260 nM. For the same molecule, in data set [2], the inhibition entry was “Active”. The same molecule yielded an IC50 at 72 h in [3] of 1640 nM.

Consider `CC(=O)OC[C@H]1O[C@@H](n2cc(Cn3c4c(c5ccccc53)C(=O)c3c[n+]([O-])c5ccccc5c3C4=O)nn2)C[C@@H]1OC(C)=O`, for which the IC50 with HCT-116 is 120 nM; with MDA-MB-231, 550 nM; with A-375, 140 nM; in the data set with A549, 1830 nM; with SH-SY5Y, greater than 500 nM; in the data set on MCF7, 550 nM. Also, the IC50 at 72 h was 2540 nM in data set [1] and 350 nM in [3].

For `CN(C)CCCn1c2c(c3ccccc31)C(=O)c1c[n+]([O-])c3ccccc3c1C2=O`, the IC50 in the data set on HCT-116 stood at 350 nM; in the data set with MDA-MB-231 it was 490 nM; in the data set on A-375, 410 nM; in the data set on A549, 310 nM; with SH-SY5Y it was 330 nM; in the data set on MCF7, 240 nM. The figures for the IC50 at 72 h in data set [1] and in data set [3] were 130 nM and 490 nM, respectively.

On to `O=C1c2c[n+]([O-])c3ccccc3c2C(=O)c2c1c1ccccc1n2CCCN1CCOCC1`, for which the IC50 in the data set on HCT-116 amounted to 410 nM; in the data set on MDA-MB-231, 550 nM; in the data set with A-375, 330 nM; in the data set on A549, 400 nM; with SH-SY5Y it was 590 nM; in the data set with MCF7 it was 450 nM. Also, the values for the IC50 at 72 h in data set [1] and in data set [3] were 170 nM and 550 nM, respectively.

`CC(=O)OC[C@H]1O[C@H](n2cc(Cn3c4c(c5ccccc53)C(=O)c3c[n+]([O-])c5ccccc5c3C4=O)nn2)C[C@@H]1OC(C)=O`: the half-maximal inhibitory concentration (IC50) in the data set on HCT-116 is 380 nM; in the data set with MDA-MB-231, 1190 nM; in the data set with A-375, 550 nM; in the data set with A549 it was 1140 nM; in the data set on SH-SY5Y, greater than 1000 nM; with MCF7, 1280 nM. In addition, the results for the IC50 at 72 h in data set [1] and in data set [3] were 120 nM and 2780 nM, respectively.
